Where a name gives a salt, the structure may show the parent alone. Non-standard residues stand in square brackets, D forms with d. Residues, ends and D or L forms follow the SMILES beside them. dBip = N[C@H](Cc1ccc(-c2ccccc2)cc1)C(=O)O; dBta = N[C@H](Cc1csc2ccccc12)C(=O)O; Api = NC1(C(=O)O)CCNCC1; Inp = O=C(O)C1CCNCC1
Key:
Solubility study = type: physicochemical
Source text: The mixture was sonicated to facilitate dissolution.

[1] = molecular target: human recombinant GHS receptor (Homo sapiens, UniProt Q92847); conditions: read-out: hGHS Ki; 0.05 nM (125I)ghrelin, 60 min, 4° C., CHO-K1 membranes
human recombinant GHS receptor, sequence (Q92847 whole entry): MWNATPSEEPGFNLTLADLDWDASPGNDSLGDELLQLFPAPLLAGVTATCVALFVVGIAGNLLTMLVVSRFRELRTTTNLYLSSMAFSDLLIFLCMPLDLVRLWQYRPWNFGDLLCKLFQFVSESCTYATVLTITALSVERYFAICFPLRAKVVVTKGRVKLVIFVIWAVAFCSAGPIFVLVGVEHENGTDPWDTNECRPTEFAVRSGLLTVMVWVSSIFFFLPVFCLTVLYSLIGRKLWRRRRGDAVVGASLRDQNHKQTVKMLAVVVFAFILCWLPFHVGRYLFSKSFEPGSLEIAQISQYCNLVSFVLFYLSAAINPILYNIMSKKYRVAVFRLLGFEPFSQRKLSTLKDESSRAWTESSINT

Solubility, PBS, pH 7.4 (Solubility study; PBS, pH 7.4, HPLC of supernatant) [mg/mL] | Solubility, Water, pH 7.0 (Solubility study; HPLC of supernatant) [mg/mL] | Dissolution in PEG200/water (Solubility study; 50 mg in 125 μL PEG200 and 125 μL water, sonicated) | solubility (Solubility study; PBS, pH 7.4, PBS, pH 7.4, HPLC of supernatant) [µg/mL] | Structure (SMILES) | Ki [1] [nM]
0.08 | 0.14 | – | – | NC(=O)C1(NC(=O)[C@H](Cc2ccccc2)NC(=O)[C@@H](Cc2c[nH]c3ccccc23)NC(=O)[C@@H](Cc2csc3ccccc23)NC(=O)C2CCNCC2)CCNCC1 [Pamoate salt of Example 1 with Zn] (H-[Inp][dBta][dW]F[Api]-NH2) | –
– | – | – | – | NC(=O)[C@H](Cc1ccccc1)NC(=O)[C@@H](Cc1c[nH]c2ccccc12)NC(=O)[C@@H](Cc1ccc(-c2ccccc2)cc1)NC(=O)C1CCNCC1 [Example 16, H-Inp-D-Bip-D-Trp-Phe-NH2] (H-[Inp][dBip][dW]F-NH2) | 20
– | 0.06 | A clear solution was obtained | 70 | NC(=O)C1(NC(=O)[C@H](Cc2ccccc2)NC(=O)[C@@H](Cc2c[nH]c3ccccc23)NC(=O)[C@@H](Cc2csc3ccccc23)NC(=O)C2CCNCC2)CCNCC1 [Pamoate salt of Example 1, pamoate salt of H-Inp-D-Bal-D-Trp-Phe-Apc-NH2] (H-[Inp][dBta][dW]F[Api]-NH2) | –

— patent publication US20160220637A1, “Pharmaceutical Compositions of Growth Hormone Secretagogue Receptor Ligands” (Ipsen Pharma S.A.S., priority 2010, published 2016)
